Source: US11472803B2, “7-substituted 1-aryl-naphthyridine-3-carboxylic acid amides and use thereof” (Bayer Aktiengesellschaft, priority 2016, dated 2022)

Assays:
human M2 receptor [1] = molecular target: T1, human M2 receptor (Homo sapiens, UniProt P08172); assay: Functional M2-GIRK1/4 activation test: positive cooperativity (α factor), shift of acetylcholine dose-response curve; format: cell-based; conditions: Allosteric EC50 shift of acetylcholine 8-point dose-response curve; CHO-DUKX-M2-GIRK cells; α>1 = positive cooperativity
T1 construct: expressed in transfected cells; host or cells: CHO-DUKX (CHO-DUKX-M2-GIRK)
T1 sequence (P08172 1-466): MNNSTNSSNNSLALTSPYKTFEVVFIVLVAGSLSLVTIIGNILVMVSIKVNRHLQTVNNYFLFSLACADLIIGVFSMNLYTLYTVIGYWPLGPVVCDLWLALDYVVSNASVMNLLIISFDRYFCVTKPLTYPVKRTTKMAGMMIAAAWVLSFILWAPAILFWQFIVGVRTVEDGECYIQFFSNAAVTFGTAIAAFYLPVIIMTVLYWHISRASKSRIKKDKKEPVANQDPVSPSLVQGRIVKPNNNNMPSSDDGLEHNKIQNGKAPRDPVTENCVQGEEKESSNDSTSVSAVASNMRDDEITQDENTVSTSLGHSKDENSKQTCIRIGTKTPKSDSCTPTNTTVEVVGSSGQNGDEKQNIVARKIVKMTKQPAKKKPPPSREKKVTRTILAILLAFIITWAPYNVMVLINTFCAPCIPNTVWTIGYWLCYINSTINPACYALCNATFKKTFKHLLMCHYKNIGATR
Excerpt: The binding of orthosteric agonists (endogenous ligand: acetylcholine) to the M2 receptor leads to receptor activation or a change in conformation of the receptor in the manner of a shift in equilibrium in favour of the active receptor conformation.
The agonist-induced change in conformation of the M2 receptor results in a Gαi protein activation. […] Under physiological conditions, the result is then a selective efflux of potassium from the cell along the electrochemical gradient. […] The extent of hyperpolarization can therefore be regarded as a measure of the activation of the M2 receptor.
The test cell used is a recombinant CHO-DUKX cell line which has been stably transfected with cDNA coding for the human M2 receptor and with cDNA coding for both GIRK1/4 subunits (CHO-DUKX-M2-GIRK). The transmembrane potential, or the relative changes in the transmembrane potential as a function of substance addition or M2 activation, is determined by means of a voltage-sensitive dye (FLIPR Membrane Potential Assay Kit Blue, Molecular Devices #R8034) and the measurement of cell fluorescence using a proprietary fluorescence imaging instrument.
In accordance with the desired test concentrations, the substances were pre-diluted in loading buffer (see above).
The sowing medium consisted of MEM alpha medium (supplemented with 5% PCS, 2% Glutamax, no genticin).
For the particular measurement, the medium was removed and the cells were laden with the volt-age-sensitive dye for at least 6 min at room temperature (30 μl of loading buffer per 384-well). This was followed, in a first measurement, by the determination of the resting transmembrane potential for a period of 5 sec in 1 sec increments. Thereafter, 10 μl in each case of the test substances diluted in loading buffer are added, followed by a second measurement to determine the transmembrane potential for a period of 50 sec in 1 sec increments.
Finally, the cells are admixed with 10 μl of agonist solution (acetylcholine dissolved in loading buffer). In contrast to the EC50 determination of the test substances (see B-1.1), however, this is not done using one acetylcholine concentration; instead, every concentration of the test substance is combined with an acetylcholine 8-point dose-response curve. […] The M2-mediated GIRK1/4 activation or hyperpolarization is then monitored in a third measurement over a period of 60 sec in 1 sec increments. The shift in the acetylcholine dose-response curve in the presence of increasing concentrations of the test substance is analysed and quantified by means of GraphPad PRISM (Allosteric EC50 shift). […] Positive cooperativity is the hallmark of a positive allosteric modulator. […] The greater the magnitude of the α value, the greater the extent of cooperativity between orthosteric and allosteric.

human M2 receptor [2] = molecular target: T1, human M2 receptor; assay: Functional M2-GIRK1/4 activation test: allosteric potency (EC50) and efficiency at EC20 acetylcholine; format: cell-based; conditions: CHO-DUKX-M2-GIRK cells; for EC50: voltage-sensitive dye, acetylcholine at EC20, in some cases mean of two or more determinations; for Emax / Efficiency: boosting of the acetylcholine effect at EC20 acetylcholine concentration
Outline: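 Positive allosteric modulation measured as boosting of an EC20 acetylcholine response: hyperpolarization via GIRK1/4 in CHO-DUKX-M2-GIRK cells, monitored by membrane-potential dye fluorescence over 60 s after agonist, compound preadded. Hill-function fit gives EC50 and efficiency.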

| Compound | Cooperativity (alpha factor) (human M2 receptor [1]) | EC50 (human M2 receptor [2]) [nM] | Emax (human M2 receptor [2]) [%] | Efficiency (human M2 receptor [2]) [%] |
| --- | --- | --- | --- | --- |
| O=C(NC(C1CC1)C(F)(F)C(F)(F)F)c1cn(-c2c(F)cc(F)cc2F)c2nc(N3CC(CO)(CO)C3)c(F)cc2c1=O (single isomer, unassigned) [Example 205, 7-[3,3-bis(hydroxymethyl)azetidin-1-yl]-N-[1-cyclopropyl-2,2,3,3,3-pentafluoropropyl]-6-fluoro-4-oxo-1-(2,4,6-trifluorophenyl)-1,4-dihydro-1,8-naphthyridine-3-carboxamide] | 25 | 3.1 | 100 | – |
| C[C@H](NC(=O)c1cn(-c2c(F)cc(F)cc2Cl)c2nc(N3C[C@@H](O)[C@H](O)C3)c(F)cc2c1=O)C(F)(F)F (single isomer, unassigned) [Example 226] | 31 | 6.7 | – | 93 |
| CC(C)(CC(F)(F)F)NC(=O)c1cn(-c2c(F)cccc2F)c2nc(N3C[C@@H](O)[C@H](O)C3)c(F)cc2c1=O [Example 1, 1-(2,6-Difluorophenyl)-7-[(3R,4R)-3,4-dihydroxypyrrolidin-1-yl]-6-fluoro-4-oxo-N-(4,4,4-tri-fluoro-2-methylbutan-2-yl)-1,4-dihydro-1,8-naphthyridine-3-carboxamide] | 35 | 21 | 92 | – |
| CC[C@H](NC(=O)c1cn(-c2c(F)cc(F)cc2F)c2nc(N3C[C@@H](O)[C@H](O)C3)c(F)cc2c1=O)C(F)(F)F [Example 6, 7-[(3R,4R)-3,4-Dihydroxypyrrolidin-1-yl]-6-fluoro-4-oxo-N-[(2S)-1,1,1-trifluorobutan-2-yl]-1-(2,4,6-trifluorophenyl)-1,4-dihydro-1,8-naphthyridine-3-carboxamide] | 58 | 6.17 | 94 | – |

Further molecules by falling EC50 (human M2 receptor [2]), results first:

| Cooperativity (alpha factor) (human M2 receptor [1]) | EC50 (human M2 receptor [2]) [nM] | Emax (human M2 receptor [2]) [%] | Efficiency (human M2 receptor [2]) [%] | Compound |
| --- | --- | --- | --- | --- |
| 33 | 6.4 | – | 93 | C[C@@H](NC(=O)c1cn(-c2c(F)cc(F)cc2Cl)c2nc(N3C[C@@H](O)[C@H](O)C3)c(F)cc2c1=O)C(F)(F)F (single isomer, unassigned) [Example 228] |
| 60 | 5.8 | 100 | – | CC(C)C[C@H](NC(=O)c1cn(-c2c(F)cc(F)cc2F)c2nc(N3CC(O)[C@H](O)C3)c(F)cc2c1=O)C(F)(F)F (stereo in doubt) [Example 11, 7-[(3R,4S)-3,4-dihydroxypyrrolidin-1-yl]-6-fluoro-4-oxo-N-[(2S)-1,1,1-trifluoro-4-methylpentan-2-yl]-1-(2,4,6-trifluorophenyl)-1,4-dihydro-1,8-naphthyridine-3-carboxamide] |
| 57 | 5.64 | 93 | – | O=C(N[C@@H](C1CC1)C(F)(F)F)c1cn(-c2c(F)cc(F)cc2F)c2nc(N3C[C@@H](O)[C@H](O)C3)c(F)cc2c1=O [Example 7, N-[(1S)-1-Cyclopropyl-2,2,2-trifluoroethyl]-7-[(3R,4R)-3,4-dihydroxypyrrolidin-1-yl]-6-fluoro-4-oxo-1-(2,4,6-trifluorophenyl)-1,4-dihydro-1,8-naphthyridine-3-carboxamide] |
| 24 | 3.3 | – | 100 | O=C(NC(C1CC1)C(F)(F)C(F)(F)F)c1cn(-c2c(F)cc(F)cc2F)c2nc(N3CC(CO)(CO)C3)c(F)cc2c1=O (single isomer, unassigned) [Example 207, 7-[3,3-bis(hydroxymethyl)azetidin-1-yl]-N-[1-cyclopropyl-2,2,3,3,3-pentafluoropropyl]-6-fluoro-4-oxo-1-(2,4,6-trifluorophenyl)-1,4-dihydro-1,8-naphthyridine-3-carboxamide] |
| 39 | 1.6 | 100 | – | O=C(NC(C1CC1)C(F)(F)C(F)(F)F)c1cn(-c2c(F)cc(F)cc2F)c2nc(N3C[C@@H](O)[C@H](O)C3)c(F)cc2c1=O (single isomer, unassigned) [Example 201] |
